Test results taken from US8653092B2, “Tetrahydro-pyrido-pyrimidine derivatives” (Novartis AG, priority 2010, dated 2014).
Where two headings read alike, the source gives them in different places.

Assays:
[1] = biological target: PI3K alpha (Homo sapiens (Human), UniProt P42336); assay: Enzymatic PI3K alpha isoform inhibition (lipid kinase, Kinase-Glo luminescence); format: biochemical
[2] = biological target: human phosphoinositide-3 kinase (PI3K) delta (Homo sapiens (Human), UniProt O00329); assay: PI3K-mediated Akt 1/2 (S473) phosphorylation in Rat-1 cells (AlphaScreen SureFire); format: cell-based; conditions: Rat-1 cells overexpressing myristoylated human PI3K delta, p-Akt (Ser473); read-out: Cell PI3Kδ/ IC50 [umol l − 1]
Sequence of human phosphoinositide-3 kinase (PI3K) delta (O00329 whole entry): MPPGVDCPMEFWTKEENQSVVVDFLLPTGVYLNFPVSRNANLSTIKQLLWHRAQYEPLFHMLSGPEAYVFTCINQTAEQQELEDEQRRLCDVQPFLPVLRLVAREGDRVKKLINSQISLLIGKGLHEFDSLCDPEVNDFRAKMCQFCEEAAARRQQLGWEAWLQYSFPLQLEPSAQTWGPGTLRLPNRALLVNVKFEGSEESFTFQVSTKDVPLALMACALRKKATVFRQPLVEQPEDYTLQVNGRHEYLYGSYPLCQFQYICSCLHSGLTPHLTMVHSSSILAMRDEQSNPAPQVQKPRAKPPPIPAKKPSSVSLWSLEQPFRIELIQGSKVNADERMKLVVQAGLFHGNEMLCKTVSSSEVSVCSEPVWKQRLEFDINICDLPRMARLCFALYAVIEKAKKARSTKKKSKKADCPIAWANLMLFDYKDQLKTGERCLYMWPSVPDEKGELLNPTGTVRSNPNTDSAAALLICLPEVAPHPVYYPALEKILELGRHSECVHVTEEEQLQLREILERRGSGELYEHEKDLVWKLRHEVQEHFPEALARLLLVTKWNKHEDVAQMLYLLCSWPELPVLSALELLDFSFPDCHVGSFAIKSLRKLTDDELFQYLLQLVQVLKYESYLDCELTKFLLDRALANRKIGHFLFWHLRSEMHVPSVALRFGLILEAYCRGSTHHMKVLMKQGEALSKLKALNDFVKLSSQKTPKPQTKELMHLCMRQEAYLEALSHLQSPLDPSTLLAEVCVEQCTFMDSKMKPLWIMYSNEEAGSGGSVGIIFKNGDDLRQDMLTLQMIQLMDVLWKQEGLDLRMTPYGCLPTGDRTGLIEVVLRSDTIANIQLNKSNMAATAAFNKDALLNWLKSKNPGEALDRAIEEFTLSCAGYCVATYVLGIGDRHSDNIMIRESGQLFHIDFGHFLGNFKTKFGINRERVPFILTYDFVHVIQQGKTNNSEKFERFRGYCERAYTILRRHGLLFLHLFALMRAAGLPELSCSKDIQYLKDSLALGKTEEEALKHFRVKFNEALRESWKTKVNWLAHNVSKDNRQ
Sequence of human phosphoinositide-3 kinase (PI3K) delta (Q63787 whole entry partner): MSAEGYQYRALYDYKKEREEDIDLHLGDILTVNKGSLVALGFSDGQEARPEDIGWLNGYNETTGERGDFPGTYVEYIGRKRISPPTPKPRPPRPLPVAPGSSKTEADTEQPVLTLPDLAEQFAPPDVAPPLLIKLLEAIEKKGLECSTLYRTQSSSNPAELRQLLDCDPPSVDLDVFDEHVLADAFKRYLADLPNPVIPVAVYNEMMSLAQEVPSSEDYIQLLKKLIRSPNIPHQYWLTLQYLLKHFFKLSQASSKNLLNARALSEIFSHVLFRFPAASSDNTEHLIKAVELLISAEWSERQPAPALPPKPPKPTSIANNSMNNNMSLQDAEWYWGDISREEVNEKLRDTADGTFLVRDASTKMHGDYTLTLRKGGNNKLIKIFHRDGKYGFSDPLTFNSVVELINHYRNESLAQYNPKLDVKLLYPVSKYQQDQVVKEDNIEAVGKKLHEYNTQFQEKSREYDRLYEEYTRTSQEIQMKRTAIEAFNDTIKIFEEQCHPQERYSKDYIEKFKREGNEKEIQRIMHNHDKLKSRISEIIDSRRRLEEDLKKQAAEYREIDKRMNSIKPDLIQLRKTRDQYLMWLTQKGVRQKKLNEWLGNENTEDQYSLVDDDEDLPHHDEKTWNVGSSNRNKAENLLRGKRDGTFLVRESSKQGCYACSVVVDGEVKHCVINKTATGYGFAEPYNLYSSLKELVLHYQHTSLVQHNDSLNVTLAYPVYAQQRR
Description: Rat-1 cells stably overexpressing a myristoylated form of the catalytic subunit of human phosphoinositide-3 kinase (PI3K) alpha, beta or delta were plated in 384-well plates at a density of 7500 (PI3K alpha), 6200 (PI3K beta), or 4000 (PI3K delta) cells in 30 ul complete growth medium (Dulbecco's modified Eagle's medium (DMEM high glucose) supplemented with 10% (v/v) fetal bovine serum, 1% (v/v) MEM non essential amino acids, 10 mM HEPES, 2 mM L-glutamine, 10 μg/mL puromycin and 1% (v/v) Penicillin/Streptomycin) and were incubated at […]/5% CO2/95% humidity for 24 h. Compounds were diluted in 384-well compound plates to obtain 8-point serial dilutions for 40 test compounds in 90% DMSO, as well as 4 reference compounds plus 16 high controls and 16 low (inhibited) controls. Predilution plates were prepared by dispensing pipetting 250 nl of compound solutions into 384-well polypropylen plates using a Hummingwell nanoliter dispensor. Compounds were prediluted by the addition of 49.75 ul complete growth medium. 10 ul of prediluted compound solution were transferred to the cell plate using a 384-well pipettor, resulting in a final DMSO concentration of 0.11%. Cells were incubated for 1 h at […]/5% CO2/95% humidity. The supernatant was removed, the cells were lysed in 20 ul of lysis buffer for AlphaScreen® SureFire® detection.
For detection of p-AKT (Ser473), the SureFire® p-Akt 1/2 (Ser473) Assay Kit (PerkinElmer, U.S.A) was used. 5 ul of cell lysate was transferred to 384-well low volume Proxiplates for detection using a 384-well pipettor. Addition of AlphaScreen® SureFire® reagents was done according to the manufacturer's protocol. First, 5 ul of reaction buffer plus activation buffer mix containing AlphaScreen® acceptor beads was added, the plate was sealed, and incubated on a plate shaker for 2 hours at room temperature. Second, 2 ul of dilution buffer containing AlphaScreen® donor beads was added, and the plate was incubated on plate shaker as above for a further 2 hours. The plate was read on an AlphaScreen® compatible plate reader, using standard AlphaScreen® settings.

[3] = test system: murine B cells; assay: Murine B cell activation: CD86 upregulation after anti-IgM stimulation; format: cell-based, mouse; conditions: read-out: mCD86/IC50 CD86 [nmol l − 1]
Description: Spleens from Balb/c mice were collected, splenocytes were isolated and washed twice with RPMI containing 10% foetal bovine serum (FBS), 10 mM HEPES, 100 Units/mL penicilline/streptomycine. RPMI supplemented in this way is subsequently referred to as medium. The cells were adjusted to 2.5×10^6 cells/mL in medium and 200 μl cell suspension (5×10^6 cells) were added to the appropriate wells of 96 well plates.
Then the cells were stimulated by adding 50 μl anti-IgM mAb in medium (final concentration: 30 μg/mL). After incubation for 24 hours at 37° C., the cells were stained with the following antibody cocktails: anti-mouse CD86-FITC, anti-mouse CD69-PerCP-Cy5.5, anti-mouse CD19-PerCP for the assessment of B cells, and anti-mouse CD3-FITC, anti-mouse CD69-PE for the assessment of T cells (2 μl of each antibody/well). After one hour at room temperature (RT) in the dark the cells were transferred to 96 Deepwell plates. The cells were washed once with 1 mL PBS containing 2% FBS and after re-suspension in 200 μl the samples were analyzed on a FACS Calibur flow cytometer. Lymphocytes were gated in the FSC/SSC dot plot according to size and granularity and further analyzed for expression of CD19, CD3 and activation markers (CD86, CD69). Data were calculated from dot blots as percentage of cells positively stained for activation markers within the CD19+ or CD3+ population using BD CellQest Software.
For assessing the inhibitory property of compounds, compounds were first dissolved and diluted in DMSO followed by a 1:50 dilution in medium. Splenocytes from Balb/c mice were isolated, re-suspended and transfered to 96 well plates as described above (200 μl/well). The diluted compounds or solvent were added to the plates (25 μl) and incubated at 37° C. for 1 hour. Then the cultures were stimulated with 25 μl anti-IgM mAb/well (final concentration […]) for 24 hours at 37° C. and stained with anti-mouse CD86-FITC and anti-mouse CD19-PerCP (2 μl of each antibody/well). CD86 expression on CD19 positive B cells was quantified by flow cytometry as described above.

[4] = biological target: PI3K delta (Homo sapiens (Human), UniProt O00329); assay: Enzymatic PI3K delta isoform inhibition (lipid kinase, Kinase-Glo luminescence); format: biochemical; conditions: enzymatic assay
Sequence of PI3K delta (O00329 other isoform, or with tags, fused parts or gaps linker GGGGGG): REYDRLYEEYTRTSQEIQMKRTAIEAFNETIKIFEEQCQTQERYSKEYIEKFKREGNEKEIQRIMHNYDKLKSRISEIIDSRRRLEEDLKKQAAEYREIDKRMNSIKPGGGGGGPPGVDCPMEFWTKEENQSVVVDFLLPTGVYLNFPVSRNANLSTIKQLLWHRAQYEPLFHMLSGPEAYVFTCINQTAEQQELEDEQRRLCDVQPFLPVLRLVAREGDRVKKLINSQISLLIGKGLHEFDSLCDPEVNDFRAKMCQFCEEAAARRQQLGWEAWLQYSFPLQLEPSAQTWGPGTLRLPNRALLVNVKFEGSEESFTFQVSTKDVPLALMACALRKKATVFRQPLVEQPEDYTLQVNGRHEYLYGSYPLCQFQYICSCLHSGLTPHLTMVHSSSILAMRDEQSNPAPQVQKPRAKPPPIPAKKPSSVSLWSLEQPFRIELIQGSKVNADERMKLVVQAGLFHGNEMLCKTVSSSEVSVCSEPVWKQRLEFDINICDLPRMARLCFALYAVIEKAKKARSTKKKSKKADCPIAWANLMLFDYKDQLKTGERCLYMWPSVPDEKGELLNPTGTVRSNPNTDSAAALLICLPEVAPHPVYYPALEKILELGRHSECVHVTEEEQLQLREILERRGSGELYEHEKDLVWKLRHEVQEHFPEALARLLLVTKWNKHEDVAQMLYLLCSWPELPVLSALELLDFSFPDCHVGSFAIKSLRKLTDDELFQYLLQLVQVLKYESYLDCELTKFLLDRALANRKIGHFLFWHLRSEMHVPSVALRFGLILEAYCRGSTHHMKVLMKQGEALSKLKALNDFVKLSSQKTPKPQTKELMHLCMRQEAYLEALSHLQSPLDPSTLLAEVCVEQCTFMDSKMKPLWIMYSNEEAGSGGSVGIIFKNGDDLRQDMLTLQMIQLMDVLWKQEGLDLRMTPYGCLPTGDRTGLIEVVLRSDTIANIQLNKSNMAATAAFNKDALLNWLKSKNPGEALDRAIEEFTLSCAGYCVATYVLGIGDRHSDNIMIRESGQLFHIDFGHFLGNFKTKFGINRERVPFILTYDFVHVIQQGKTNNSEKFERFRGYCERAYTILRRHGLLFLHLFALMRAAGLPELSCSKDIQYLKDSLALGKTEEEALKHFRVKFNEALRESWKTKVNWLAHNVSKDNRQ

[5] = Balb/c mouse splenocytes, anti-IgM 24 h, CD86 on CD19+ B cells

Sequence of PI3K alpha (P42336 other isoform, or with tags, fused parts or gaps): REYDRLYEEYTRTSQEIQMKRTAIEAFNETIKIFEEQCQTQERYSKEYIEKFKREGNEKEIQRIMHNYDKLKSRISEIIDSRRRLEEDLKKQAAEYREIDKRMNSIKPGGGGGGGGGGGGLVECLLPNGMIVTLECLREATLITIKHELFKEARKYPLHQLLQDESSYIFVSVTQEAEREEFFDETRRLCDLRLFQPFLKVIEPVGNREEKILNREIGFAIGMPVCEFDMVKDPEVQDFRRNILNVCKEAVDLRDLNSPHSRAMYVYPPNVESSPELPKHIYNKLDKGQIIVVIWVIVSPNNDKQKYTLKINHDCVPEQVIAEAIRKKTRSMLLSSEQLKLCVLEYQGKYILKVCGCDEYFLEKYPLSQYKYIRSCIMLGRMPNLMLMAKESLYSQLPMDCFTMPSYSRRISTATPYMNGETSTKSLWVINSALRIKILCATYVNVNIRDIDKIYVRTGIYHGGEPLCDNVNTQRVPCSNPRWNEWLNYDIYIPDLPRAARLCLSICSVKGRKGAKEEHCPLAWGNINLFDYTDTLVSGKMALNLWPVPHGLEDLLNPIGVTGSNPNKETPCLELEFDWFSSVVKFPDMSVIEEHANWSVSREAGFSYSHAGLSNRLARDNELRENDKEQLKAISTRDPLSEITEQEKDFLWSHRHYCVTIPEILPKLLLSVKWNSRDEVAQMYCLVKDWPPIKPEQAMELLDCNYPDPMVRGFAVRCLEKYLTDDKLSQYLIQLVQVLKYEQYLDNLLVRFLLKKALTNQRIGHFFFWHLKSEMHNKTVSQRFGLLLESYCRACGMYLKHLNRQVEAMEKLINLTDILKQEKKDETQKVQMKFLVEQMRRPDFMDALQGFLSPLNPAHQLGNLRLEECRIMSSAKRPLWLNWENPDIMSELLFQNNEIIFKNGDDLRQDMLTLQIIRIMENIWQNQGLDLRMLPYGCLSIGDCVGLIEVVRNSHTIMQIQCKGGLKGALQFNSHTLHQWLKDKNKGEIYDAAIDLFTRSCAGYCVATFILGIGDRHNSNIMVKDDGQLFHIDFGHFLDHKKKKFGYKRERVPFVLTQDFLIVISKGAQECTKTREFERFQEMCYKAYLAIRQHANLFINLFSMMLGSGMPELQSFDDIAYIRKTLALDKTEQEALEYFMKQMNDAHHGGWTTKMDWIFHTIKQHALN

Structure (SMILES) | IC50 ([1]; enzymatic assay) [nM] | IC50 [2] [nM] | IC50 [3, 5] [nM] | IC50 [4] [nM] | IC50 ([3]; Mus musculus, 24 h) [nM] | IC50 [1] [nM]
CCC(=O)N1CC[C@H](Nc2ncnc3c2CN(c2cnc(OC)c(C(F)(F)F)c2)CC3)C1 [Example 67, 1-{(S)-3-[6-(6-Methoxy-5-trifluoromethyl-pyridin-3-yl)-5,6,7,8-tetrahydro-pyrido[4,3-d]pyrimidin-4-ylamino]-pyrrolidin-1-yl}-propan-1-one] | 262 | – | – | – | 48.3 | –
COc1ncc(N2CCc3ncnc(N[C@H]4CCN(C(=O)C5CCOC(C)(C)C5)C4)c3C2)cc1C(F)(F)F (stereo partly drawn) [Example 71, (2,2-Dimethyl-tetrahydro-pyran-4-yl)-{(S)-3-[6-(6-methoxy-5-trifluoromethyl-pyridin-3-yl)-5,6,7,8-tetrahydro-pyrido[4,3-d]pyrimidin-4-ylamino]-pyrrolidin-1-yl}-methanone] | – | 35 | 24.7 | 3 | – | 57
CCC(=O)N1CC[C@H](Nc2ncnc3c2CN(c2cnc(OC)c(C)c2)CC3)C1 [Example 81, 1-{(S)-3-[6-(6-Methoxy-5-methyl-pyridin-3-yl)-5,6,7,8-tetrahydro-pyrido[4,3-d]pyrimidin-4-ylamino]-pyrrolidin-1-yl}-propan-1-one] | 651 | 246 | 86.5 | 20 | – | –
COc1ccc(N2CCc3ncnc(O[C@H]4CCN(C(=O)C5CCOCC5)C4)c3C2)cn1 [Example 95, {(S)-3-[6-(6-Methoxy-pyridin-3-yl)-5,6,7,8-tetrahydro-pyrido[4,3-d]pyrimidin-4-yloxy)pyrrolidin-1-yl}-(tetrahydro-pyran-4-yl)-methanone] | 757 | – | – | 53 | – | –

Now from value to compound, other results behind:

IC50 ([1]; enzymatic assay) [nM] | IC50 [2] [nM] | IC50 [3, 5] [nM] | IC50 [4] [nM] | Structure (SMILES) | IC50 ([3]; Mus musculus, 24 h) [nM] | IC50 [1] [nM]
749 | 455 | 125 | 20 | COc1cc(N2CCc3ncnc(O[C@H]4CCN(C(=O)C5CCOCC5)C4)c3C2)cnc1OC [Example 5, {(S)-3-[6-(5,6-Dimethoxy-pyridin-3-yl)-5,6,7,8-tetrahydro-pyrido[4,3-d]pyrimidin-4-yloxy]-pyrrolidin-1-yl}-(tetrahydro-pyran-4-yl)-methanone] | – | –
1840 | 254 | 120 | 48 | COc1ncc(N2CCc3ncnc(O[C@H]4CCN(C(=O)c5cn(C)cn5)C4)c3C2)cc1C [Example 20, {(S)-3-[6-(6-Methoxy-5-methyl-pyridin-3-yl)-5,6,7,8-tetrahydro-pyrido[4,3-d]pyrimidin-4-yloxy]-pyrrolidin-1-yl}-(1-methyl-1H-imidazol-4-yl)-methanone] | – | –
1210 | 268 | 71.6 | 4 | COc1ncc(N2CCc3ncnc(O[C@H]4CCN(C(=O)c5oc(C)nc5C)C4)c3C2)cc1C#N [Example 28, 5-{4-[(S)-1-(2,4-Dimethyl-oxazole-5-carbonyl)-pyrrolidin-3-yloxy]-7,8-dihydro-5H-pyrido[4,3-d]pyrimidin-6-yl}-2-methoxy-nicotinonitrile] | – | –
738 | 191 | 570 | 23 | COc1ncc(N2CCc3ncnc(O[C@H]4CCN(c5ccccn5)C4)c3C2)cc1C(F)(F)F [Example 65, 6-(6-Methoxy-5-trifluoromethyl-pyridin-3-yl)-4-((S)-1-pyridin-2-yl-pyrrolidin-3-yloxy)-5,6,7,8-tetrahydro-pyrido[4,3-d]pyrimidine] | – | –
43 | 53 | 14.9 | 7 | COc1ncc(N2CCc3ncnc(N[C@H]4CCN(C(=O)C5CCOCC5)C4)c3C2)cc1C(F)(F)F [Example 68, {(S)-3-[6-(6-Methoxy-5-trifluoromethyl-pyridin-3-yl)-5,6,7,8-tetrahydro-pyrido[4,3-d]pyrimidin-4-ylamino]-pyrrolidin-1-yl}-(tetrahydro-pyran-4-yl)-methanone] | – | –
